The source made the active and inactive calls.
Assays:
Protein skinhead-1 = biological target: T1, Protein skinhead-1 (Caenorhabditis elegans, UniProt P34707); assay type: functional
T1 sequence (P34707 whole entry): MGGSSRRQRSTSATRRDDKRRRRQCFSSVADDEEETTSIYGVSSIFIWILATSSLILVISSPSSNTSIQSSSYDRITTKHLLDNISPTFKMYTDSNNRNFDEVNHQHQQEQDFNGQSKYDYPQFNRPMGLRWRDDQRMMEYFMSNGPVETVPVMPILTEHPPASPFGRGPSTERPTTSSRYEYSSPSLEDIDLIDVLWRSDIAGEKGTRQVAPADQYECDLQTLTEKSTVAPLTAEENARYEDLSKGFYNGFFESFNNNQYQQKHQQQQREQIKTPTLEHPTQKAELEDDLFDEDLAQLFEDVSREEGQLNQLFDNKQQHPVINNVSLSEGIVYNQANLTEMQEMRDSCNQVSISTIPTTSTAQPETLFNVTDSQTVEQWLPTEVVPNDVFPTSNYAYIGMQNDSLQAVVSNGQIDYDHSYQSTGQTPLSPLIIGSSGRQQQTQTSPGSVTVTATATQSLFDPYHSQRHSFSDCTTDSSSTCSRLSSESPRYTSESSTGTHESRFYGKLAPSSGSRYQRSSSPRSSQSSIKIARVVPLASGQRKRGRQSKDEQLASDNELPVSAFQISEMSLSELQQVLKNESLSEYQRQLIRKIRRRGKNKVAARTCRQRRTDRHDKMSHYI

[1] = biological target: T2, Oxysterols receptor LXR-beta (Homo sapiens, UniProt P55055); assay type: functional, cell-based;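 note: agonist activity at LXR measured by a cell-based luminescence readout across a dose range, run as a counterscreen for daf-12 agonists; HEK293 cells with Gal4-LXR fusion and GAL4-driven luciferase reporter; potency for activation of Gal4-LXR reporter so compounds are agonists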
T2 sequence (P55055 whole entry): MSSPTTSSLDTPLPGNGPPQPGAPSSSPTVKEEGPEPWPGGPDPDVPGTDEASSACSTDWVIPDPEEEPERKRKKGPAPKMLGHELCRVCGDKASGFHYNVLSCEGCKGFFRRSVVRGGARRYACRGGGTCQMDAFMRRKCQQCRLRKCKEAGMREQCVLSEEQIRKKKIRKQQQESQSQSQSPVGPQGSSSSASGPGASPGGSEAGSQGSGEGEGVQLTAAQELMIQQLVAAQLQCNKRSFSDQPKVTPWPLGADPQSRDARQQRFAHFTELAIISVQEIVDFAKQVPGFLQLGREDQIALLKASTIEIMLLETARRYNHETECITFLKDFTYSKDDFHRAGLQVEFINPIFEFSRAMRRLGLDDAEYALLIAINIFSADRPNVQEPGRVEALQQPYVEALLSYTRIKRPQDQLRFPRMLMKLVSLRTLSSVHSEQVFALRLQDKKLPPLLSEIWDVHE

Protein Wnt-3a = Protein Wnt-3a (Mus musculus, UniProt P27467); test: SAR analysis of small molecule antagonists of Gli-SUFU in a Wnt3a luminescent reporter assay.; assay type: functional
Chain of Protein Wnt-3a (P27467 whole entry): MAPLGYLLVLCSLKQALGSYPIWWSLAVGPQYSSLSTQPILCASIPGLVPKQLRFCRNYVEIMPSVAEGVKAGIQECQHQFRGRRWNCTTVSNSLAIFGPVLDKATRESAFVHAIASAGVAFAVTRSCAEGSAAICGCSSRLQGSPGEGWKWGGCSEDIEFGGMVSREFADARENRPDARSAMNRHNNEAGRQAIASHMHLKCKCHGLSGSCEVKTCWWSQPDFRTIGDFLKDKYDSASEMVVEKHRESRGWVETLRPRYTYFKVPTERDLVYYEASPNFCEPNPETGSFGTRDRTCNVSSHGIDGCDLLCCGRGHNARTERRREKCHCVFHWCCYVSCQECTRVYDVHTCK

[2] = general mammalian cell viability loss – inhibitor set, cherry-pick, set 2, cytotoxicity control for miR-122 modulator project, dose response (AID 720697); assay type: functional, cell-based
[3] = biological target: Disintegrin and metalloproteinase domain-containing protein 17 (Homo sapiens, UniProt P78536); test: inhibition of ADAM17 substrate cleavage – biochemical, quenched FRET substrate, counter-screen for ADAM10 exosite inhibitor project, dose response (AID 743253)
Chain of Disintegrin and metalloproteinase domain-containing protein 17 (P78536 whole entry, the tested form may be a part): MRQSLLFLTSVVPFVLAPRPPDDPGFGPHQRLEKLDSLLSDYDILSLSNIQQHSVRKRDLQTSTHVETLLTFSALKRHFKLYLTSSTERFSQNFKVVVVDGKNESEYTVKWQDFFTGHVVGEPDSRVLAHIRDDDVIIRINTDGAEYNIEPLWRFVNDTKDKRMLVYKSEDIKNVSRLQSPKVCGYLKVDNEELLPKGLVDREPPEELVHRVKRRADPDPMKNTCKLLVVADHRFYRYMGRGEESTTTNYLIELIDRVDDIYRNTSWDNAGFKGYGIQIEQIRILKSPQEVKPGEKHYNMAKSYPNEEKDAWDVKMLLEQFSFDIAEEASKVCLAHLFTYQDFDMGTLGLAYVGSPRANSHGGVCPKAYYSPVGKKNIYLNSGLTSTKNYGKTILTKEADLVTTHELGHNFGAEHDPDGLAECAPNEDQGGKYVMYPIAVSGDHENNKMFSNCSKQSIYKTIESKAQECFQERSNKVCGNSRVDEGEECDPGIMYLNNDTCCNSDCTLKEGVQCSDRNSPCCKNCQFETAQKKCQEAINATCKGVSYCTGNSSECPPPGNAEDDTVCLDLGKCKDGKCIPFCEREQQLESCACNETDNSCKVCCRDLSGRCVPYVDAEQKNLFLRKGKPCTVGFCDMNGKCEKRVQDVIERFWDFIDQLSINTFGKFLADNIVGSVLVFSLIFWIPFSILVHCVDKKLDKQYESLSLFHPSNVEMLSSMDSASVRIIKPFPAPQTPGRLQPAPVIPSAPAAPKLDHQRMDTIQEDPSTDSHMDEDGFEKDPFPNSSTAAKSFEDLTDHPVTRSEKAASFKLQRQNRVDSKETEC

[4] = potency of ADAM10 substrate cleavage blockers – biochemical, QFRET, dose response (AID 743254);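 note: ADAM10 enzyme with the DM2 quenched FRET peptide as substrate; EDANS fluorescence gain as the protease cuts the substrate; inhibitor potency against ADAM10 proteolytic activity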
[5] = biological target: T3, Replicative DNA helicase DnaB (Mycobacterium tuberculosis, UniProt P9WMR3); test: DnaB intein splicing inhibitors, dose response, biochemical, cell-free fluorescence (AID 449749); assay type: functional
T3 sequence (P9WMR3 whole entry): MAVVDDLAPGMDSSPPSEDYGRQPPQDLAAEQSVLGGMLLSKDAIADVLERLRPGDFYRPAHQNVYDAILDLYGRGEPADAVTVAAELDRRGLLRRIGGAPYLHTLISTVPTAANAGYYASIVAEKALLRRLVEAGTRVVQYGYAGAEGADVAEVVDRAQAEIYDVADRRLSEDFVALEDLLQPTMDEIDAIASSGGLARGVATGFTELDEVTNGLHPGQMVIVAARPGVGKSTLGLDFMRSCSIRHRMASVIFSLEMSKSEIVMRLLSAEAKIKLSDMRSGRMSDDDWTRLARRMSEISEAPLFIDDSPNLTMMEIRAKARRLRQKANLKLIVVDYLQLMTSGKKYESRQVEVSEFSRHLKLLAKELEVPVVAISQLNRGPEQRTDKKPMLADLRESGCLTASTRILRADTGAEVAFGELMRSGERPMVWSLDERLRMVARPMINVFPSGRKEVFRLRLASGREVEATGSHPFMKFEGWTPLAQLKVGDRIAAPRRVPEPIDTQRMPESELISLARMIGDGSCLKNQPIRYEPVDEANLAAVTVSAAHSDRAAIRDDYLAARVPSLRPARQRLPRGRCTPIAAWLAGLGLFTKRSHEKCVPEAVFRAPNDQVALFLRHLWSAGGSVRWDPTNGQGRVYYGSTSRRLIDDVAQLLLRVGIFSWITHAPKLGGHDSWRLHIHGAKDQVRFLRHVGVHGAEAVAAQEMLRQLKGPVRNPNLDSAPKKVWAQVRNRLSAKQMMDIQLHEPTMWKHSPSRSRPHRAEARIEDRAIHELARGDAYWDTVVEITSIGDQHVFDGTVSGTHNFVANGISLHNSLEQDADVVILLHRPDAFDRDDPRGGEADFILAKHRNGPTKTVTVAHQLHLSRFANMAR

Protein RecA = biological target: T4, Protein RecA (Mycobacterium tuberculosis, UniProt P9WHJ3); test: Fluorescence Cell-Free Homogeneous Dose Retest to Identify Inhibitors of RecA-Intein Splicing Activity. [Related pubchem assays (depositor defined):AID2097, AID2223, AID489010, AID492950]; assay type: functional
T4 sequence (P9WHJ3 whole entry): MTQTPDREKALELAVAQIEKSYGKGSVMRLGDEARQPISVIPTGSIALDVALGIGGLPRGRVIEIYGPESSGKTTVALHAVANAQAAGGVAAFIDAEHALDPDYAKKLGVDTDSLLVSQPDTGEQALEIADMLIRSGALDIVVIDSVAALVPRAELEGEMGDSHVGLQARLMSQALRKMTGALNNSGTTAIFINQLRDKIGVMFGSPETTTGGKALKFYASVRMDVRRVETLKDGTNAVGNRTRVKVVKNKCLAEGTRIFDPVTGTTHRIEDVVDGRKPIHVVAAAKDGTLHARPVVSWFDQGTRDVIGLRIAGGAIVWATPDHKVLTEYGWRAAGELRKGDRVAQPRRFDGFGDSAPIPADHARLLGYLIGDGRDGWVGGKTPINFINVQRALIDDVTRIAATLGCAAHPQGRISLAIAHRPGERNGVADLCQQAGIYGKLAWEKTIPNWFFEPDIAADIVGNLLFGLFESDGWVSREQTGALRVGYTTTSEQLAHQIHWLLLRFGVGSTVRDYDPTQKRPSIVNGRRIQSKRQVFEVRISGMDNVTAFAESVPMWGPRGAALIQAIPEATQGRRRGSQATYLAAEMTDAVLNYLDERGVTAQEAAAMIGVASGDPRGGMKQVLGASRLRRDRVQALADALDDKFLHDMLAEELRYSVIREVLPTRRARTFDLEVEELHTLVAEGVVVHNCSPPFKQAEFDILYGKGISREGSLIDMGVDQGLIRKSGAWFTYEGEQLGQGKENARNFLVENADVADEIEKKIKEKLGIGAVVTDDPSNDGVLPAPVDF

[6] = system: Streptococcus sp. 'group A'; test: Streptococcus pyogenes SK(-)GAS viability under kanamycin – luminescence, BacTiterGlo, confirmation, counter-screen for streptokinase expression inhibitor project, dose response (AID 1900); assay type: functional, organism-based
[7] = biological target: T5, Short transient receptor potential channel 4 (Mus musculus, UniProt Q9QUQ5); test: calcium entry via TRPC4 opening agents – cell-based, HEK293 TRPC4/mu-opioid, Fluo-4 calcium, dose response (AID 434937); assay type: functional
T5 sequence (Q9QUQ5 whole entry): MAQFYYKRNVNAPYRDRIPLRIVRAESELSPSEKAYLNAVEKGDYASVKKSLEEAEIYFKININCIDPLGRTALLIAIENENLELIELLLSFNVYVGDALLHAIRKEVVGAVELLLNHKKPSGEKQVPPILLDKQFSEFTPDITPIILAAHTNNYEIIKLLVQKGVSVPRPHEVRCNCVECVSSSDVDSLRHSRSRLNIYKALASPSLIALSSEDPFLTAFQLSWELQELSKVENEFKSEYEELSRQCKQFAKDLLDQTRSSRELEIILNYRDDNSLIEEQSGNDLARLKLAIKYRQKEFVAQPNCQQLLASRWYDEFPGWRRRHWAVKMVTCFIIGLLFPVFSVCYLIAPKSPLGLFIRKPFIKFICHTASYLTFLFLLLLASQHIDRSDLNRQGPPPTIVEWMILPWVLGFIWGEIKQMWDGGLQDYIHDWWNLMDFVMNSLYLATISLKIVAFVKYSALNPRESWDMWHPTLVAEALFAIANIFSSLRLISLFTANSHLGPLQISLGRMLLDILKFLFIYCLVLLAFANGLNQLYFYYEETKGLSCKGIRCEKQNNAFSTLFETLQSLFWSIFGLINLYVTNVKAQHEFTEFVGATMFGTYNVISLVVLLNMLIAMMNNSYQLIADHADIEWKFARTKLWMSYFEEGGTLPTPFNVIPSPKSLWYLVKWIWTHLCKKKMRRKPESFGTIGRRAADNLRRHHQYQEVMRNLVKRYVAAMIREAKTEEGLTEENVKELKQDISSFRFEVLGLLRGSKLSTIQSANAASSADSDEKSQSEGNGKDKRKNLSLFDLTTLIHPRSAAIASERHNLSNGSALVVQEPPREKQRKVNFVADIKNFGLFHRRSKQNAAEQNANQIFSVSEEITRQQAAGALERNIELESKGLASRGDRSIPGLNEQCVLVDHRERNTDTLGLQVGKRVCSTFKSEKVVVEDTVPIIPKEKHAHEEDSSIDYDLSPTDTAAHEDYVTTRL

Streptococcus = test: GAS UMAA2166 growth inhibition – luminescence, BacTiterGlo, counter-screen for streptokinase expression inhibitor project, dose response (AID 1915); assay type: functional, organism-based;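 note: potency for reduction of bacterial viability or growth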
[8] = biological target: T6, Heat shock factor protein 1 (Mus musculus, UniProt P38532); test: decrease of HSF1-responsive luciferase luminescence – cell-based, NIH3T3, dose retest, confirmation (AID 2382); assay type: functional;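 note: NIH3T3 fibroblasts with HSF1-driven luciferase reporter stressed by proteasome inhibitor MG132; luminescence from HSF1-driven luciferase expression after 8 hours of MG132 stress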
T6 sequence (P38532 whole entry): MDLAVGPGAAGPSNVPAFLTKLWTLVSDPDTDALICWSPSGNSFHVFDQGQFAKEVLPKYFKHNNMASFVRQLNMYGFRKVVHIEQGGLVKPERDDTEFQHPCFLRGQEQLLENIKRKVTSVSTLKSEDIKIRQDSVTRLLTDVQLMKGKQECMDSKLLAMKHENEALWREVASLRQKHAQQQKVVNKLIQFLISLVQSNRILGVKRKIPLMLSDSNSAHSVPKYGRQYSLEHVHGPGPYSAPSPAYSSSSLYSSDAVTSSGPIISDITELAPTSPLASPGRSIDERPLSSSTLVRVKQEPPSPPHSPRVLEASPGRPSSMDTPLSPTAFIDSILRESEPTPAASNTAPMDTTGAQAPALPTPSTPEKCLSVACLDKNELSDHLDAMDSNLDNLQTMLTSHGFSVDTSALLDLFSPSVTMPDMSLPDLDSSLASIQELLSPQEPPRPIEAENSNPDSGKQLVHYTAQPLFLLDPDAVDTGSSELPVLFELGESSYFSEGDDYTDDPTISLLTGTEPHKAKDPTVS

Albumin = Albumin (Bos taurus, UniProt P02769); test: Counterscreen for inhibitors of T-cell receptor (TCR)-CD3 interaction: Fluorescence-based biochemical high throughput dose response assay to identify inhibitors of T-cell receptor (TCR)-CD3 interaction using a TAMRA-labeled BSA probe.; assay type: functional
Chain of Albumin (P02769 whole entry): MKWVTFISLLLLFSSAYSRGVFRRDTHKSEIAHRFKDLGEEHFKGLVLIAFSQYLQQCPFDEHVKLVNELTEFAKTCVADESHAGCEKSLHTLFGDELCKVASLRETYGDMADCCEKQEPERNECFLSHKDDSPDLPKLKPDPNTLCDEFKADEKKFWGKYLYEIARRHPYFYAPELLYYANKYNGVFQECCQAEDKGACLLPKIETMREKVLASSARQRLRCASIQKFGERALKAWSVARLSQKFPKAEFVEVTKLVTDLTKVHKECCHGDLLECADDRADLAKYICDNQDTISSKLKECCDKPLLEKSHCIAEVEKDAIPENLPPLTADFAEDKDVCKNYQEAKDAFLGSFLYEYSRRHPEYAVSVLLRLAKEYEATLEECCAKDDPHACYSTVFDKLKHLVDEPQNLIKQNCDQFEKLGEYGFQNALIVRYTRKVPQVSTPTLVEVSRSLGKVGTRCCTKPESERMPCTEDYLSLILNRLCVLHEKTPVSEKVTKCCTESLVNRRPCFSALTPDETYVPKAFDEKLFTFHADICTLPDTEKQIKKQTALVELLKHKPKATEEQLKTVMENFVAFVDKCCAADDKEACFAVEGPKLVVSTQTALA

Streptokinase A = biological target: T7, Streptokinase A (Streptococcus pyogenes serotype M1, UniProt P10520); test: viability-normalized secreted streptokinase activity reduction – plasminogen activation absorbance, OD405, dose response (AID 1914); assay type: functional, Streptococcus pyogenes M1 GAS;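 note: secreted streptokinase activity via plasminogen activation per viability signal from cell pellet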
T7 sequence (P10520 whole entry): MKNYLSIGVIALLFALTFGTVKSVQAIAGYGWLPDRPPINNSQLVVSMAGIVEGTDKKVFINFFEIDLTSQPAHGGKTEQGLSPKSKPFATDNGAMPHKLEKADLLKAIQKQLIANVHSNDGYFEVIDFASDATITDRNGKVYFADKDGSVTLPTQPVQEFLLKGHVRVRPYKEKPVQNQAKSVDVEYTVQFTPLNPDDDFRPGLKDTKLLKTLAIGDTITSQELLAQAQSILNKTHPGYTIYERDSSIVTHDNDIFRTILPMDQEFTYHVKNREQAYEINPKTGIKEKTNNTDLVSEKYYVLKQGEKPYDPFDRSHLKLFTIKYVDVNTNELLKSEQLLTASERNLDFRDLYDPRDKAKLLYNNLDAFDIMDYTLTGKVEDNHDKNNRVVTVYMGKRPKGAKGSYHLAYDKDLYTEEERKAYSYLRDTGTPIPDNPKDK

For `Clc1ccc(OCCSc2ncccn2)c(Br)c1`, the IC50 (Protein skinhead-1) was 40.4 µM (active) and the EC50 [1] was > 67.5 µM (inactive).

In the case of `CCOC(=O)c1sc2nc3c(cc2c1N)COC(C)(CC)C3` (stereo not drawn), the EC50 [1] is reported as > 67.5 µM (inactive).

For `O=C(Nc1cc(N2CCCCC2)ncn1)c1ccccc1F`, the IC50 (Protein Wnt-3a) was < 0.0426 µM (active).

In the case of `C/C=C/c1ccc([C@@H]2[C@@H](CO)N[C@@H]2CN(CC)C(=O)CN2CCOCC2)cc1`, the AC50 [2] is reported as 0.431 µM (active).

With `CN(C)c1ccc(C(CNS(=O)(=O)c2ccc(F)c(F)c2)c2c[nH]c3ccccc23)cc1` (stereo not drawn) the IC50 [3] was > 69.5 µM (inactive) and the IC50 [4] was > 7.72 µM (active).

In the case of `CCOC(=O)c1ccc(N2C(=O)c3[nH]nc(-c4ccco4)c3C2c2ccc([N+](=O)[O-])cc2)cc1` (stereo not drawn), the IC50 [3] is reported as > 69.5 µM (inactive), the AC50 [5] is reported as 2.92 µM (active) and the IC50 [4] is reported as 17 µM (inactive). For the same molecule, the EC50 (Protein RecA) was 56.2 µM (active).

With `COc1ccc(C(=O)NNC(=S)NC(=O)c2cccs2)cc1` the EC50 [6] was 3.71 µM (active), the EC50 [7] was 10.6 µM (active) and the EC50 (Streptococcus) was 15.1 µM (active). The EC50 [8] was > 195 µM (not active), the IC50 (Albumin) was > 94 µM (inactive) and the EC50 (Streptokinase A) was > 150 µM (not active).

With `O=C(Nc1cc(N2CCCCC2)ncn1)c1ccc(Cl)cc1` the IC50 (Protein Wnt-3a) was > 21.8 µM (inactive).
